Patent US6610824B2 (Amylin Pharmaceuticals, Inc., priority 1991, dated 2003)
Where a SMILES comes first, the peptide text is derived from it.

Tests used:
Solubility = format: physicochemical; details: where a comparison is made, compared with human amylin
From the text: (§1) This may be due in some measure, although this is not known, to the different aggregation properties of the amylins from different species.
(§2) The agonist analogues of amylin of this invention are useful in view of their pharmacological properties. […] In addition to the description of compounds pursuant to FIG. 3, certain preferred compounds are set forth in Table I. The preferred compounds des-^1Lys-h-amylin [SEQ. ID. NO. 7], ^28Pro-h-amylin [SEQ. ID. NO. 8], ^25, 28, 29Pro-h-amylin [SEQ. ID. NO. 9], ^18Arg^25, 28Pro-h-amylin [SEQ. ID. NO. 10], and des-^1Lys^18Arg^25, 28Pro-h-amylin [SEQ. ID. NO. […] These preferred compounds include ^25Pro^26Val^28, 29Pro-h-amylin [SEQ. ID. NO. 12], ^25, 28, 29Pro-h-amylin, and ^18Arg^25, 28Pro-h-amylin.

Stability in solution = format: physicochemical; details: where a comparison is made, compared with human amylin
From the text: as §1, §2

amylin receptors = molecular target: T1, amylin receptors (Rattus norvegicus, UniProt P32214); assay: Receptor binding assay (125I-rat amylin competition, rat basal forebrain membranes); details: competition with 125I-rat amylin at 12-16 pM
T1 construct: This basal forebrain tissue, containing the nucleus accumbens and surrounding regions, was weighed and homogenized; from tissue; host or cells: rat basal forebrain (nucleus accumbens and surrounding regions) membranes
T1 sequence (P32214 25-516): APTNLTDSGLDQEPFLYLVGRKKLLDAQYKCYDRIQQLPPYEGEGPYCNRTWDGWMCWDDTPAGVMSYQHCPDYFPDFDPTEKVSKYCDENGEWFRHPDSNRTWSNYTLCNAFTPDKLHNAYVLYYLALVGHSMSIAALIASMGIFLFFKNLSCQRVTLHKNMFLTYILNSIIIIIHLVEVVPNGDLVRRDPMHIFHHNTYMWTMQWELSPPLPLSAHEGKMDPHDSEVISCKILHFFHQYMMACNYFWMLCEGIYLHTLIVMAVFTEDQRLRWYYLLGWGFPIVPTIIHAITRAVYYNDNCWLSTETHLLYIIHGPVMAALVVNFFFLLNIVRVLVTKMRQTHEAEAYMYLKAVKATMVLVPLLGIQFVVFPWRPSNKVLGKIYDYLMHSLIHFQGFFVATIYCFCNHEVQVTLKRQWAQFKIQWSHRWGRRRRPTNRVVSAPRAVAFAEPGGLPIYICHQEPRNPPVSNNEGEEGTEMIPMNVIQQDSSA
T1 sequence (Q9JJ74 27-148 partner): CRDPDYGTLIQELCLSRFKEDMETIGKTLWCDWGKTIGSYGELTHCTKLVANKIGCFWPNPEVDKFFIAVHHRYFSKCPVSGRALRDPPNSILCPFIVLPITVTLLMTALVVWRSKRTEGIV
From the text: Unlabeled peptides were obtained from BACHEM Inc. (Torrance, Calif.) and Peninsula Laboratories (Belmont, Calif.).
Male Sprague-Dawley rats (200-250) grams were sacrificed by decapitation. Brains were removed to cold phosphate-buffered saline (PBS). From the ventral surface, cuts were made rostral to the hypothalamus, bounded laterally by the olfactory tracts and extending at a 45Ε angle medially from these tracts. This basal forebrain tissue, containing the nucleus accumbens and surrounding regions, was weighed and homogenized in ice-cold 20 mM HEPES buffer (20 mM HEPES acid, pH adjusted to 7.4 with NaOH at 23ΕC). […] The final membrane pellet was resuspended in 20 mM HEPES buffer containing 0.2 mM phenylmethylsulfonyl fluoride (PMSF).
Solutions were incubated for 60 minutes at 2ΕC. […] Filters were washed immediately before filtration with 5 ml cold PBS, and immediately after filtration with 15 ml cold PBS.

IC50 (amylin receptors) [nM]	Molecule	solubility (Solubility)	stability in solution (Stability in solution)
–	CC[C@H](C)[C@H](NC(=O)[C@H](C)NC(=O)CNC(=O)[C@H](Cc1ccccc1)NC(=O)[C@H](CC(N)=O)NC(=O)[C@H](CC(N)=O)NC(=O)[C@H](CO)NC(=O)[C@H](CO)NC(=O)[C@H](Cc1c[nH]cn1)NC(=O)[C@@H](NC(=O)[C@H](CC(C)C)NC(=O)[C@H](Cc1ccccc1)NC(=O)[C@H](CC(N)=O)NC(=O)[C@H](C)NC(=O)[C@H](CC(C)C)NC(=O)[C@H](CCCNC(=N)N)NC(=O)[C@H](CCC(N)=O)NC(=O)[C@@H](NC(=O)[C@H](C)NC(=O)[C@@H]1CSSC[C@H](NC(=O)[C@@H](N)CCCCN)C(=O)N[C@@H](CC(N)=O)C(=O)N[C@@H]([C@@H](C)O)C(=O)N[C@@H](C)C(=O)N[C@@H]([C@@H](C)O)C(=O)N1)[C@@H](C)O)C(C)C)C(=O)N[C@@H](CC(C)C)C(=O)N[C@@H](CO)C(=O)N[C@@H](CO)C(=O)N[C@H](C(=O)N[C@@H](CC(N)=O)C(=O)N[C@H](C(=O)NCC(=O)N[C@@H](CO)C(=O)N[C@@H](CC(N)=O)C(=O)N[C@H](C(=O)N[C@@H](Cc1ccc(O)cc1)C(N)=O)[C@@H](C)O)C(C)C)[C@@H](C)O [human amylin]	limited solubility	limited stability
0.31	CC[C@H](C)[C@H](NC(=O)[C@H](C)NC(=O)CNC(=O)[C@H](Cc1ccccc1)NC(=O)[C@H](CC(N)=O)NC(=O)[C@H](CC(N)=O)NC(=O)[C@H](CO)NC(=O)[C@H](CO)NC(=O)[C@H](Cc1c[nH]cn1)NC(=O)[C@@H](NC(=O)[C@H](CC(C)C)NC(=O)[C@H](Cc1ccccc1)NC(=O)[C@H](CC(N)=O)NC(=O)[C@H](C)NC(=O)[C@H](CC(C)C)NC(=O)[C@H](CCCNC(=N)N)NC(=O)[C@H](CCC(N)=O)NC(=O)[C@@H](NC(=O)[C@H](C)NC(=O)[C@@H]1CCCCNC(=O)C[C@H](NC(=O)[C@@H](N)CCCCN)C(=O)N[C@@H](CC(N)=O)C(=O)N[C@@H]([C@@H](C)O)C(=O)N[C@@H](C)C(=O)N[C@@H]([C@@H](C)O)C(=O)N1)[C@@H](C)O)C(C)C)C(=O)N[C@@H](CC(C)C)C(=O)N[C@@H](CO)C(=O)N[C@@H](CO)C(=O)N[C@H](C(=O)N[C@@H](CC(N)=O)C(=O)N[C@H](C(=O)NCC(=O)N[C@@H](CO)C(=O)N[C@@H](CC(N)=O)C(=O)N[C@H](C(=O)N[C@@H](Cc1ccc(O)cc1)C(N)=O)[C@@H](C)O)C(C)C)[C@@H](C)O [Example 3, ^2, 7Cyclo-[^2Asp, ^7Lys]-h-Amylin] (HELM PEPTIDE1{K.D.N.T.A.T.K.A.T.Q.R.L.A.N.F.L.V.H.S.S.N.N.F.G.A.I.L.S.S.T.N.V.G.S.N.T.Y.[am]}$PEPTIDE1,PEPTIDE1,2:R3-7:R3$$$V2.0)	–	–
–	rat amylin	higher	higher
